System: NCI-H69
Assay: Cell killing in NCI-H69 by CGT (CellTiter-Glo)
Format: cell-based
Details: NCI-H69, 96 h; Inh% relative to DMSO control, 4-parameter fit
Experimental: Approximately 5 µL of the PDC was added to the corresponding wells of the plate, and compared with DMSO (control, without the PDC of the present application), PTX, MMAE, and Dxd wells. The final concentration of DMSO in each well was 0.2%; • (5) The cells were incubated in a 5% CO2 incubator at 37°C for 96 h; • (6) The cell culture plate was equilibrated to room temperature, and 50 µL of CellTiter-Glo® Reagent was added to each well; • (7) The plate was placed on a shaker for 2 min to ensure complete cell lysis; • (8) After mixing, the plate was placed at room temperature to react for 10 min. The fluorescence value (in RLU) was read when the signal became stable. • c) Data analysis • (1) The inhibition (Inh %) relative to the DMSO control was calculated as follows: Inhibition (Inh%)= 100 -(RLU of compound - RLU of DMSO control)/ (RLU of DMSO control - RLU of blank)*100% • (2) The data were analyzed using Graphpad 5.0 software. A 4-parameter equation was fitted to generate a concentration-response curve to obtain the IC50. Table 3: Test Results of Cell Killing in NCI-H69

With CC[C@H](C)[C@@H]([C@@H](CC(=O)N1CCC[C@H]1[C@H](OC)[C@@H](C)C(=O)N[C@H](C)[C@@H](O)c1ccccc1)OC)N(C)C(=O)[C@@H](NC(=O)[C@H](C(C)C)N(C)C(=O)OCc1ccc(NC(=O)[C@H](CCCNC(N)=O)NC(=O)[C@@H](NC(=O)CCCCCN2C(=O)CC(SC[C@H](NC(C)=O)C(=O)NCCOCCOCC(=O)N[C@@H](CCCNC(=N)N)C(=O)N[C@@H](CCCNC(=N)N)C(=O)N[C@@H](CC(C)C)C(=O)N[C@@H](Cc3ccccc3)C(=O)N[C@H]3CSSC[C@@H](C(=O)N[C@H](C(=O)N[C@@H](Cc4c[nH]c5ccccc45)C(=O)N[C@@H](CCCNC(=N)N)C(=O)N[C@@H](CC(=O)O)C(N)=O)[C@@H](C)O)NC(=O)[C@H]([C@@H](C)O)NC(=O)[C@H](CCCCN)NC(=O)[C@@H](Cc4c[nH]c5ccccc45)NC(=O)[C@H](Cc4ccc(O)cc4)NC3=O)C2=O)C(C)C)cc1)C(C)C (stereo partly drawn) [Example 1, Cys(MC-Val-Cit-PABC-MMAE)-AEEA-Arg-Arg-Leu-Phe-[Cys-Tyr-D-Trp-Lys-Thr-Cys]-Thr-Trp-Arg-Asp-NH2] the “Bottom (Inhibition at Lowest Point)” value was 2.17 and the “Top (Inhibition at Highest Point)” value was 79.37.
